For assay [1], the target named is T1, Mammalian DNA-PK, isolated from Hela cell nuclear extract (Homo sapiens, UniProt P78527).
T1 construct: Mammalian DNA-PK, isolated from Hela cell nuclear extract; endogenous in cells; host or cells: HeLa cell nuclear extract (purified per Gell and Jackson 1999)
Description: DNA-PK inhibition assay (33P-ATP, filter binding). Type of assay: biochemical. The procedure, abridged:
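DNA-PK from HeLa nuclear extract preincubated with compound 10 min at 30 °C, then started with 50 μM Na-ATP final, ^33P-γATP and 30mer dsDNA (10 ng/μl), run 45 min at 30 °C.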

A further assay has as its system HeLa cells. Description: Enhancement Ratio: cell growth inhibition (SRB assay) after 2 Gy irradiation. Format: cell-based. Particulars: inhibitor 25 μM. How it is done:
DNA-PK inhibitors were used at a fixed concentration of 25 micromolar. Radiation was delivered by a Faxitron 43855D X-ray system at a dose rate of 1Gy per minute The Enhancement ratio at 2 Gy irradiation was calculated from the formula: [formula] Cell growth was assessed using the sulforhodamine B (SRB) assay (Skehan, P., Storung, R., Scudiero, R., Monks, […]., Kenny, S. and Boyd, M. R. (1990) New calorimetric cytotoxicity assay for anticancer-drug screening. J. Natl. Cancer Inst. 82:1107-1112). 400 HeLa cells were seeded into each well of a flat-bottomed 48-well microtiter plate in a volume of 200 μl and incubated for 6 h at 37° C. […] Cells were allowed to grow for a further 1 h before irradiation or mock irradiation. Cells untreated with DNA-PK inhibitor or unirradiated were used as a control. Cells treated with DNA-PK inhibitor alone were used to assess the growth inhibition by the DNA-PK inhibitor. Cells were left for a further 16 h before replacing the media and allowing the cells to grow for a further 6 days at 37° C. The media was then removed and the cells fixed with 200 μl of ice cold 10% (w/v) trichloroacetic acid. The plates were incubated at 4° C. for 20 minutes and then washed four times with water. Each well of cells was then stained with 200 μl of 0.4% (w/v) SRB in 1% acetic acid for 20 minutes before washing four times with 1% acetic acid. Plates were then dried for 2 h at room temperature. The dye from the stained cells was solubilized by the addition of 100 μl of 10 mM Tris Base into each well. Plates were gently shaken and left at room temperature for 30 minutes before measuring the optical density at 564 nm on a Microquant microtiter plate reader.
Background: The SRB assay estimates cell density from bound dye.

The target of assay [2] is T2, ATM protein (Homo sapiens, UniProt Q13315).
T2 construct: ATM protein was immunoprecipitated from HeLa cell nuclear extract; endogenous in cells; host or cells: HeLa cell nuclear extract (immunoprecipitate)
T2 sequence (Q13315 whole entry): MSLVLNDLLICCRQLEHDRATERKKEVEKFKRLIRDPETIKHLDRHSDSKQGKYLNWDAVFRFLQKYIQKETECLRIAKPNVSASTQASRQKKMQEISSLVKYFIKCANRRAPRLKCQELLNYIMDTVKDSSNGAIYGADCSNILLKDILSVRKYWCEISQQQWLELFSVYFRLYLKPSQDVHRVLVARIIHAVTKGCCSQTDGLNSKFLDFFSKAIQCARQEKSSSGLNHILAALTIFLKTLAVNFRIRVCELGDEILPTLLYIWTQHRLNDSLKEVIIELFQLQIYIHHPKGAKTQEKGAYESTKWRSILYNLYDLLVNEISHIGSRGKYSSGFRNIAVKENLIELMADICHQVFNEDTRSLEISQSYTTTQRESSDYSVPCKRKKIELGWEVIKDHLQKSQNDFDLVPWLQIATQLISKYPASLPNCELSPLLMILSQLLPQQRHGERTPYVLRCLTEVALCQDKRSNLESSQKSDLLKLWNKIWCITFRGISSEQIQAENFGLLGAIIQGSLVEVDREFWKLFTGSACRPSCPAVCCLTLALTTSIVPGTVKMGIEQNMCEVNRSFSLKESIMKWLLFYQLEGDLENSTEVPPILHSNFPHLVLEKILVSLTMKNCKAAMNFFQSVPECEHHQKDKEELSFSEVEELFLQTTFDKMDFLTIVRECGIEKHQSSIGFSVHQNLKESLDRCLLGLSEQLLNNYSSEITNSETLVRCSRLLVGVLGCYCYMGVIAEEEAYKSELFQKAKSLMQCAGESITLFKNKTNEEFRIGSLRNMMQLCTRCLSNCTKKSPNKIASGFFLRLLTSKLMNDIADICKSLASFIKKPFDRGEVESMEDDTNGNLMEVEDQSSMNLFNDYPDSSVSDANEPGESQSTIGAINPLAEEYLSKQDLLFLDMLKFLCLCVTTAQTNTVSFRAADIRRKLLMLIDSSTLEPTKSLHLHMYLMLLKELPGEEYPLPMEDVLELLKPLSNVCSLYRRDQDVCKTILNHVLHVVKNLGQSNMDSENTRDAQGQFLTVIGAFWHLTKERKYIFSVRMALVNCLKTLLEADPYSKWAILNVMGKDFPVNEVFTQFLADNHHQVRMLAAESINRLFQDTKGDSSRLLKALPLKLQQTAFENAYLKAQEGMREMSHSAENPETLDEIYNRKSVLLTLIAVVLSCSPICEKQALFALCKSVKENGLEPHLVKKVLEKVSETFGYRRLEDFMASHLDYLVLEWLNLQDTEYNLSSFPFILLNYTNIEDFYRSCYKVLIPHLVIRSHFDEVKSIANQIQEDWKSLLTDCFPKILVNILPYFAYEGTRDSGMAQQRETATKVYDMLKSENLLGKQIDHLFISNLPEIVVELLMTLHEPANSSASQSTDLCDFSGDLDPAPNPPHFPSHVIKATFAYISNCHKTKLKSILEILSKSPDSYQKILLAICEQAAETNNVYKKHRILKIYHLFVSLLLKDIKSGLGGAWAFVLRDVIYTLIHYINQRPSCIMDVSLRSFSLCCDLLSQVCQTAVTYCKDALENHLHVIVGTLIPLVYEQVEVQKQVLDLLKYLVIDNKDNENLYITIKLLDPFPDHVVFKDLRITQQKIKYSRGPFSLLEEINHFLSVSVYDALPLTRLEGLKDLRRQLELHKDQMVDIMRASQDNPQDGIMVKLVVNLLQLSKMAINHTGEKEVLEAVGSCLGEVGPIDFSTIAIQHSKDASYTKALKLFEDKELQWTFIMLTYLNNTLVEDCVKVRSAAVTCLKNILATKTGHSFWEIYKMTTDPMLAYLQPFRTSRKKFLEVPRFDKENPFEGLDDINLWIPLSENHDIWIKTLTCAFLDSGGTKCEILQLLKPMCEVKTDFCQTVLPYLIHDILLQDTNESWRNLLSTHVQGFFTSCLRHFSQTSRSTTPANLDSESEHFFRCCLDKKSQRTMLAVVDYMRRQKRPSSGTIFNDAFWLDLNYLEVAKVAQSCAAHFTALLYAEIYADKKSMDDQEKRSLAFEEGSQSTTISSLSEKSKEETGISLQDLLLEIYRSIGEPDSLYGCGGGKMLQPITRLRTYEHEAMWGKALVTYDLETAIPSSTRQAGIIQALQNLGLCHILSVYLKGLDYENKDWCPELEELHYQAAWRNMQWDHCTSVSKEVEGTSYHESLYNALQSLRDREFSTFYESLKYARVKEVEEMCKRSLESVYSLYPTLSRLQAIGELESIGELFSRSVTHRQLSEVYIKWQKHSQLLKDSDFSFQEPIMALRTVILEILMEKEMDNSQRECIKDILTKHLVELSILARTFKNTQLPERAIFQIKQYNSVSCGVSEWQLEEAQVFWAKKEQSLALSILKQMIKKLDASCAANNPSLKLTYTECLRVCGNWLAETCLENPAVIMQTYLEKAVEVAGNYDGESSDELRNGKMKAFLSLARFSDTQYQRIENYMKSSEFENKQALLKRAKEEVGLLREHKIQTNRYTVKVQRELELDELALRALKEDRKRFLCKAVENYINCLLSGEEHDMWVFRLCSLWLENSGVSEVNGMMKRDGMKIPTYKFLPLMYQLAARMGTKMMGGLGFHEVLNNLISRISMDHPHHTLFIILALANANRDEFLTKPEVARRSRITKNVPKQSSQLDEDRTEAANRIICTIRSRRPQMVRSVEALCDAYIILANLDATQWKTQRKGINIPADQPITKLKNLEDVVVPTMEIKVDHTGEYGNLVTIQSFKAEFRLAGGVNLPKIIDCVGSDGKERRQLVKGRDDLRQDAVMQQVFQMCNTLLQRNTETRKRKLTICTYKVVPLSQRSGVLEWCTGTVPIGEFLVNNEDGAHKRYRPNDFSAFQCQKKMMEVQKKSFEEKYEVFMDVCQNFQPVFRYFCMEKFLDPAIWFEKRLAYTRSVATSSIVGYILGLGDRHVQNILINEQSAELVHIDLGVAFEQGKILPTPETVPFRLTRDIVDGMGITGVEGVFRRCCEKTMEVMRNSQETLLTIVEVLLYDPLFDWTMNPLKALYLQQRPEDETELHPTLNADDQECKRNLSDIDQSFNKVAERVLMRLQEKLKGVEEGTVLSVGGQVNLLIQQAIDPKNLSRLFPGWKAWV
The assay is described as follows: ATM inhibition assay (immunoprecipitated ATM, GSTp53N66 substrate). Format: biochemical. On the procedure: (§1) In order to assess the inhibitory action of the compounds against ATM in vitro, the following assay was used to determine IC50 values.
(§2) ATM protein was immunoprecipitated from HeLa cell nuclear extract using rabbit polyclonal antisera raised to the C-terminal ˜500 amino-acid residues of the human ATM protein. The immunoprecipitation was performed according to the methodology described by Banin, S. et al. (1998) Enhanced phosphorylation of p53 by ATM in response to DNA damage. Science 281:1674-1677. 10 μl of immunoprecipitated ATM in Buffer C (50 mM Hepes, pH 7.4, 6 mM MgCl2, 150 mM NaCl, 0.1 mM sodium orthovanadate, 4 mM MnCl2, 0.1 mM dithiothreitol, 10% glycerol) was added to 32.5 μl of buffer C containing 1 μg of the ATM substrate GSTp53N66 in a V-bottomed 96 well polypropylene plate. The GSTp53N66 substrate is the amino terminal 66 amino acid residues of human wild type p53 fused to glutathione S-transferase. ATM phosphorylates p53 on the residue serine 15 (Banin, S. et al. (1998) Enhanced phosphorylation of p53 by ATM in response to DNA damage. Science 281:1674-1677). Varying concentrations of inhibitor were then added. […] After 10 minutes of incubation at 37° C., the reactions were initiated by the addition of 5 μl of 50 μM Na-ATP. After 1 h with shaking at 37° C., 150 μl of phosphate buffered saline (PBS) was added to the reaction and the plate centrifuged at 1500 rpm for 10 minutes. 5 μl of the reaction was then transferred to a 96 well opaque white plate containing 45 μl of PBS to allow the GSTp53N66 substrate to bind to the plate wells. The plate was covered and incubated at room temperature for 1 h with shaking before discarding the contents. The plate wells were washed twice by the addition of PBS prior to the addition of 3% (w/v) bovine serum albumin (BSA) in PBS. The plate was incubated at room temperature for 1 h with shaking before discarding the contents and washing twice with PBS. To the wells, 50 μl of a 1:10,000 dilution of primary phosphoserine-15 antibody (Cell Signaling Technology, #9284L) in 3% BSA/PBS was added to detect the phosphorylation event on the serine 15 residue of p53 elicited by the ATM kinase. After 1 h of incubation at room temperature with shaking, the wells were washed four times with PBS prior to the addition of an anti-rabbit HRP conjugated secondary antibody (Pierce, 31462) with shaking for 1 h at room temperature. The wells were then washed four times with PBS before the addition of chemiluminescence reagent (NEN Renaissance, NEL105). The plate was then shaken briefly, covered with a transparent plate seal and transferred to a TopCount NXT for chemiluminescent counting. Counts per second, following a one second counting time, were recorded for each reaction. The inhibition of ATM activity by compounds was calculated as described above for the DNA-PK assay.
(§3) The selectivity was determined by the following equation: […]

The subject of assay [3] is ATM protein. The assay is described as above. Type of assay: biochemical, human. Particulars: selectivity ratio from the IC50s for ATM and DNA-PK. On the procedure:
as §1, §2, §3

[4] abbreviates: IC50 of less than about 1 μM and/or % inhibition of more than about 50 at 1 μM, read-out: DNA-PK inhibition IC50 (particular efficacy).
[5] abbreviates: concentration at which 50% of the enzyme activity is inhibited, read-out: DNA-PK Inhibition IC50.

As a reminder, the IC50 is the concentration at which inhibition is half-maximal.

Like-named read-outs stand apart in the source and are kept apart here.

With `O=c1cc(N2CCOCC2)oc2c3c(ccc12)CCCC3` [Compound 297, 7,8,9,10-tetrahydro-benzo[h]-2-(morpholin-4-yl)-chromen-4-one], the results for the IC50 (in assay [1] (setting [4]); in assay [1] (setting [5]); against ATM protein [2]) were less than 1000 nM, 500 nM and 45000 nM, respectively. Moreover, in the assay on HeLa cells, the “Enhancement Ratio (ER)” value came out at 2.12. The “Δ(DNA-PK/ATM)” value in the assay on ATM protein [3] was 90.
`CC1CN(c2cc(=O)c3ccc4ccccc4c3o2)CCO1` (stereo not drawn) [Compound 317, 2-(2-Methyl-morpholin-4-yl)-benzo[h]chromen-4-one]: the half-inhibitory concentration (IC50) is less than 1000 nM in assay [1] (setting [4]), 300 nM in assay [1] (setting [5]) and greater than 100000 nM against ATM protein [2]. Further, the “Enhancement Ratio (ER)” value in the assay with HeLa cells is listed as 3.62. For the same compound, the “Δ(DNA-PK/ATM)” value in the assay on ATM protein [3] is recorded as greater than 333.
The corresponding values for `O=C1c2ccccc2C(=O)N1CCCOc1ccc2c(=O)cc(N3CCOCC3)oc2c1` [Compound 422, N-[3-(2-(Morpholin-4-yl)-4-oxo-4H-chromen-7-yloxy)-propyl]-phthalimide] are less than 1000 nM, 500 nM, greater than 100000 nM, 1.68 and greater than 200.

Values taken from patent publication US7674823B2, “DNA-PK inhibitors” (Cancer Research Technology Limited, priority 2001, dated 2010).
